# Source: patent publication US20090087916A1, “Assay method for identifying drug candidate” (AnGesMG, Inc., priority 2004, published 2009)
# Assays:
# Aβ (1-42) fibril = Aβ (1-42) fibril (Homo sapiens, UniProt P05067); test: in vitro sink-like Aβ assay: Aβ dissolved from fibril in presence of compound, Aβ ELISA of supernatant; assay type: biochemical; conditions: Aβ (1-42) fibril pellets, PBS containing compound, 37° C. for one day, supernatant by Aβ ELISA; control (PBS without compound) = 1
# Description: Sandwich ELISA for Aβ (1-40) and Aβ (1-42) was performed using an Aβ (1-40) ELISA kit and Aβ (1-42) ELISA kit (Biosoure, IBL, Signet Laboratories and the like). […] The peptide was incubated for several days at 37° C. until fibrillization was completed. After centrifugation at 22° C. (15,000×g, 10 min), the supernatant was removed. The obtained pellets were gradually and carefully washed 3 times with PBS. Fresh PBS (20 μl) was carefully and gradually added to the pellets. The sample was incubated at 37° C. for one day. After centrifugation (15,000×g, 10 min) at 22° C., the supernatant was removed. […] The sample was incubated at 37° C. for one day.
# Aβ = conditions: in vitro; Ono, Biochim Biophys Acta 2004; cited from earlier work
# [1] = tested on: protease-resistant protein (PrP-res); conditions: cited from earlier work
# tau = conditions: Taniguchi et al., J Biol Chem 2005; cited from earlier work
# Aβ (1-42) fibril, sequence (P05067 672-713): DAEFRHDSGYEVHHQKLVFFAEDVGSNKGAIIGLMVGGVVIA
Compound,average (ratio of Aβ dissolved from fibril when the control is 1) (Aβ (1-42) fibril),inhibitory action on the formation or elongation of Aβ (Aβ),inhibition of formation of protease-resistant protein (PrP-res) [1],inhibition of tau filament formation (tau)
O=C(OC[C@H]1O[C@@H](OC(=O)c2cc(O)c(O)c(OC(=O)c3cc(O)c(O)c(O)c3)c2)[C@H](OC(=O)c2cc(O)c(O)c(OC(=O)c3cc(O)c(O)c(O)c3)c2)[C@@H](OC(=O)c2cc(O)c(O)c(OC(=O)c3cc(O)c(O)c(O)c3)c2)[C@@H]1OC(=O)c1cc(O)c(O)c(OC(=O)c2cc(O)c(O)c(O)c2)c1)c1cc(O)c(O)c(OC(=O)c2cc(O)c(O)c(O)c2)c1 [tannic acid],1.3969,in vitro inhibitory action on the formation or elongation of Aβ,,
COc1cc(/C=C/C(=O)CC(=O)/C=C/c2ccc(O)c(OC)c2)ccc1O [curcumin],2.4691,,,
ferric dehydroporphyrin IX,1.4124,,inhibit in vitro the formation of a protease-resistant protein (PrP-res),inhibits tau filament formation
CCN(CCO)c1ccc(/N=N/c2sc3cc(OC)ccc3[n+]2C)cc1 [basic blue 41],2.299,,,
O=c1c(O)c(-c2cc(O)c(O)c(O)c2)oc2cc(O)cc(O)c12 [myricetin],1.3196,in vitro inhibitory action on the formation or elongation of Aβ,,
CNc1ccc2nc3ccc(=[N+](C)C)cc-3sc2c1.[Cl-] [azure B],2.1701,,,inhibit tau filament formation
